What follows are molecules tested on Mouse B16 melanoma cells (assay: Melanin production inhibition test). Conditions: 72 h; mouse B16 melanoma cells, three days after addition; minimum non-cytotoxic final concentration at which ratio of melanin amount was 80% or less; read-out: Inhibitory effect on melanin production.
Format: cell-based
Protocol: A test for melanin production inhibition by the compounds of the formula (1) was conducted. The test method is as follows.
Melanin Production Inhibition Test
(1) Inoculation of Cells and Addition of Test Substances
Mouse B16 melanoma cells were inoculated in a six well plate at 100,000 cells/well. The next day, test substance solutions (solvent: DMSO) were added.
(2) Cell Proliferation Test
Three days after the addition of the test substance solution, the medium was removed by aspiration. Then 1 ml of EMEM medium containing 10% Alamar Blue solution was added, and a reaction was allowed to proceed at 37° C. After 30 minutes, 100 μL of the reaction mixture was transferred to a 96 well plate and fluorescence was measured at an excitation wavelength of 544 nm and a measurement wavelength of 590 nm. Using the value thus measured as a relative value of cell count, a ratio of the cell count (% cell count) of the test substance-added group to the test substance-absent group (group in which only the solvent was added) was calculated. The higher the % cell count, the lower the cytotoxicity. It was determined that a compound having the % cell count of 80% or more was non-cytotoxic, and that a compound having the % cell count of less than 80% was cytotoxic.
(3) Quantification of Melanin
The cells after the cell proliferation test were washed with PBS three times, and then lysed by addition of 200 μL of 1M NaOH to measure an absorbance at 475 nm. Using the value thus measured as a: value of the melanin amount, a ratio of the melanin amount (%) of the test substance-added group to the test substance-absent group (group in which only the solvent was added) was calculated. The lower the ratio of the melanin amount, the higher the melanin production-inhibitory effect. […] The inhibitory effect on melanin production was evaluated according to the following criteria.
⊚: the minimum concentration for inhibition of melanin production was 1 ppm or less.
◯: the minimum concentration for inhibition of melanin production was more than 1 ppm and 10 ppm or less.

SMILES | minimal effective concentration [µg/mL]
Cc1cc(N2CCOCC2)nc(-n2nc(C)cc2C)n1 [Compound 2] | ≤ 1
CCc1c(C)nn(-c2nc(C)cc(C)n2)c1O [Compound 8] | ≤ 1
Cc1cc(C)nc(-n2nc(C)cc2O)n1 [Compound 11] | 1 to 10
Cc1cc(N(C)C)nc(-n2nc(C)cc2C)n1 [Compound 14] | ≤ 1
Cc1cnn(-c2nc(C)cc(C)n2)c1 [Compound 23] | ≤ 1
Cc1cc(S)nc(-n2nc(C)cc2C)n1 [Compound 6] | ≤ 1
Cc1cc(C)n(-c2ncccn2)n1 [Compound 4, 1-(pyrimidin-2-yl)-3,5-dimethylpyrazole] | ≤ 1
Cc1cc(C)nc(-n2cccn2)n1 [Compound 12, 2-(pyrazol-1-yl)-4,6-dimethylpyrimidine] | 1 to 10
Cc1cc(N2CCOCC2)nc(-n2nc(C)c(C)c2C)n1 [Compound 20] | ≤ 1
CCc1cnc(-n2nc(C)cc2C)nc1 [Compound 21, 1-(5-ethylpyrimidin-2-yl)-3,5-dimethylpyrazole] | ≤ 1
Cc1cn(-c2nc(C)cc(C)n2)cn1 [Compound 42] | ≤ 1
Cc1cc(C)nc(-n2nc(C)cc2N)n1 [Compound 1] | ≤ 1
Cc1cc(C)n(-c2ccccc2)n1 [Compound 33, 1-phenyl-3,5-dimethylpyrazole] | 1 to 10
Cc1cc(C)cc(-n2nc(C)cc2C)c1 [Compound 35] | ≤ 1
Cc1ccnc(-n2nc(C)cc2C)n1 [Compound 22, 1-(4-methylpyrimidin-2-yl)-3,5-dimethylpyrazole] | ≤ 1
Cc1cc(C)nc(N2CC(C)CC(C)C2)n1 (centres unmarked) [Compound 45, N-(4,6-dimethylpyrimidin-2-yl)-3,5-dimethylpiperidine] | 1 to 10
COc1cc(OC)nc(-n2nc(C)cc2C)n1 [Compound 13] | ≤ 1
Cc1cc(C)nc(-n2ccc(C)n2)n1 [Compound 18] | ≤ 1
Cc1cc(C)n(-c2ccc(C)c(C)c2)n1 [Compound 34] | ≤ 1
Cc1cccc(-n2nc(C)cc2C)c1 [Compound 36] | ≤ 1
Cc1ccnc(-n2nc(C)cc2C)c1 [Compound 40, 1-(4-methylpyridin-2-yl)-3,5-dimethylpyrazole] | 1 to 10
CNc1cc(C)nc(-n2nc(C)cc2C)n1 [Compound 7] | ≤ 1
Cc1cc(C)nc(-n2ccnc2C)n1 [Compound 41] | ≤ 1
Cc1cc(N)n(-c2ncccn2)n1 [Compound 3] | 1 to 10
Cc1cc(C)nc(-n2ncc3c2/C(=C/c2ccc(Cl)cc2)CC3)n1 [Compound 30] | ≤ 1
Cc1cc(C)nc(-n2nccc2C)n1 [Compound 17] | ≤ 1

Same assay, conditions: minimum concentration at which an inhibitory effect on melanin production was significantly exhibited in melanoma B16 cells

SMILES | Minimum concentration (%)
Cc1cc(N(C)C)nc(-n2nc(C)cc2C)n1 [Compound 14] | 3 × 10^−6%
CNc1cc(C)nc(-n2nc(C)cc2C)n1 [Compound 7] | 3 × 10^−6%
OC[C@H]1O[C@@H](Oc2ccc(O)cc2)[C@H](O)[C@@H](O)[C@@H]1O [Arbutin, 4-hydroxyphenyl-β-D-glucopyranoside, reference compound] | 5 × 10^−4%

— US8563552B2, “Whitening agent and skin external preparation” (Shiseido Company Ltd., priority 2008, dated 2013)
